Species on record: Rattus norvegicus
Test: Open TG-GATES - Regimen: Single
Type: toxicity, organism-based, Sprague-Dawley
Design: regimen Single, gender Male, age 6 weeks
Settings: in vivo, po, 0 mg/kg, route gavage, dose level Control; for APTT / Bas / Eos / Fbg / Hb / Ht / Lym / MCH / MCHC / MCV / Mono / Neu / PT / Plat / RBC / Ret / WBC: tissue Blood; for KIDNEY_L / KIDNEY_R / KIDNEY_TOTAL: tissue Kidney; for LIVER: tissue Liver; for A/G / ALP / ALT / AST / BUN / CRE / Ca / Cl / DBIL / GLC / IP / K / LDH / Na / PL / RALB / TBIL / TC / TG / TP / gamma-GTP: tissue Plasma

`Nc1c2c(nc3ccccc13)CCCC2` [TACRINE] gave a TERMINAL_BW (9 h) of 205.8 g, an APTT (9 h) of 19.8 s and a Bas (9 h) of 0%. For the same molecule, the Eos (9 h) was 1%, the Fbg (9 h) was 285.8 mg/dL and the Hb (9 h) was 13.2 g/dL. The Ht (9 h) was 38.4%, the Lym (9 h) was 81.6% and the MCH (9 h) was 21.1 pg. It also gave an MCHC (9 h) of 34.2%, an MCV (9 h) of 61.5 fL and a Mono (9 h) of 2%. The Neu (9 h) was 15%, the PT (9 h) was 16 s and the Plat (9 h) was 120 x10_4/uL. The RBC (9 h) was 624.8 x10_4/ul, the Ret (9 h) was 8.6% and the WBC (9 h) was 84.5 x10_2/uL. The KIDNEY_L (9 h) was 0.9 g, the KIDNEY_R (9 h) was 0.9 g and the KIDNEY_TOTAL (9 h) was 1.8 g. The LIVER (9 h) was 8.8 g, the A/G (9 h) was 1.3 and the ALP (9 h) was 1213.6 IU/L. It also gave an ALT (9 h) of 34 IU/L, an AST (9 h) of 72.6 IU/L and a BUN (9 h) of 12.6 mg/dL. The CRE (9 h) was 0.2 mg/dL, the Ca (9 h) was 10.4 mg/dL and the Cl (9 h) was 107 meq/L. The DBIL (9 h) was 0 mg/dL, the GLC (9 h) was 185.6 mg/dL and the IP (9 h) was 9.9 mg/dL. For the same molecule, the K (9 h) was 4.2 meq/L, the LDH (9 h) was 230.8 IU/L and the Na (9 h) was 142 meq/L. It also gave a PL (9 h) of 139 mg/dL, an RALB (9 h) of 3 g/dL and a TBIL (9 h) of 0.022 mg/dL. For the same molecule, the TC (9 h) was 75.8 mg/dL, the TG (9 h) was 60.8 mg/dL and the TP (9 h) was 5.4 g/dL. For the same molecule, the gamma-GTP (9 h) was 1 IU/L, the TERMINAL_BW (24 h) was 214.7 g and the APTT (24 h) was 20.5 s. For the same molecule, the Bas (24 h) was 0%, the Eos (24 h) was 0.8% and the Fbg (24 h) was 295.8 mg/dL. For the same molecule, the Hb (24 h) was 13.4 g/dL, the Ht (24 h) was 38.7% and the Lym (24 h) was 83%. The MCH (24 h) was 21.5 pg, the MCHC (24 h) was 34.8% and the MCV (24 h) was 61.9 fL. For the same molecule, the Mono (24 h) was 3%, the Neu (24 h) was 12.4% and the PT (24 h) was 16.3 s. It also gave a Plat (24 h) of 126.5 x10_4/uL, an RBC (24 h) of 626.2 x10_4/ul and a Ret (24 h) of 7.3%. For the same molecule, the WBC (24 h) was 106.1 x10_2/uL, the KIDNEY_L (24 h) was 0.9 g and the KIDNEY_R (24 h) was 1 g. It also gave a KIDNEY_TOTAL (24 h) of 1.9 g, an LIVER (24 h) of 10 g and an A/G (24 h) of 1.3. It also gave an ALP (24 h) of 1572.4 IU/L, an ALT (24 h) of 43 IU/L and an AST (24 h) of 74.4 IU/L. For the same molecule, the BUN (24 h) was 18.8 mg/dL, the CRE (24 h) was 0.2 mg/dL and the Ca (24 h) was 10.8 mg/dL. For the same molecule, the Cl (24 h) was 106.8 meq/L, the DBIL (24 h) was 0.008 mg/dL and the GLC (24 h) was 191.6 mg/dL. For the same molecule, the IP (24 h) was 7.3 mg/dL, the K (24 h) was 4.6 meq/L and the LDH (24 h) was 300.2 IU/L. The Na (24 h) was 141.4 meq/L, the PL (24 h) was 154.2 mg/dL and the RALB (24 h) was 3.1 g/dL. It also gave a TBIL (24 h) of 0.032 mg/dL, a TC (24 h) of 79.8 mg/dL and a TG (24 h) of 103 mg/dL. For the same molecule, the TP (24 h) was 5.4 g/dL and the gamma-GTP (24 h) was 1 IU/L.

Reference: ChEMBL document CHEMBL3885861, “Open TG-GATES”
